Results on 38 compounds are retold here after ChEMBL document CHEMBL1201862, “PubChem BioAssay data set” (2004).

Calls of active or inactive are those of the source.

Broadly, the EC50 is the concentration giving half of the maximal effect. A word on the AC50: it is the concentration at which the activity in the assay is half-maximal. For orientation: CC50 means the concentration at which the toxic effect on the cells reaches its halfway point. What is called IC50 is the concentration at which inhibition is half-maximal.

Test [1] addresses Luciferin 4-monooxygenase (Photinus pyralis, UniProt P08659). Description: firefly luciferase enzyme inhibitors, dose response, biochemical, luminescence (AID 1891).
A short description of test [2]: Luminescence Cell-Based Dose Confirmation HTS to Identify Inhibitors of Platelet Dense Granule Release. [Related pubchem assays: 1663 (Primary HTS), 1678 (Summary of Project)]. The class given is functional.
For test [3], the target named is Cytochrome P450 2C9 (Homo sapiens, UniProt P11712).
Test [4] deals with T1, RNA-binding protein pos-1 (Caenorhabditis elegans, UniProt G5EF15).
T1 sequence (G5EF15 whole entry): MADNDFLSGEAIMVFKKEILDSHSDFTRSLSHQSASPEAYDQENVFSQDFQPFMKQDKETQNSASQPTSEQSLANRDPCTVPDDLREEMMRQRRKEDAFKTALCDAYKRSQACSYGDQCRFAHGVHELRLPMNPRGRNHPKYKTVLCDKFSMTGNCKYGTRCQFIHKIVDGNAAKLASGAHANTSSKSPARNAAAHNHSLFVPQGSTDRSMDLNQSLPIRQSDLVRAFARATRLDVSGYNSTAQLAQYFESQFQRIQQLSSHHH
Kind of test: inhibitors of POS-1/mex-3 RNA binding, dose response, biochemical, fluorescence polarization (AID 1964).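 Also: purified POS-1 fused to maltose binding protein made in E. coli; potency of compounds blocking POS-1 binding to fluorescent RNA.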

Test [5] addresses T2, Cytochrome P450 1A2 (Homo sapiens, UniProt P05177).
T2 sequence (P05177 whole entry): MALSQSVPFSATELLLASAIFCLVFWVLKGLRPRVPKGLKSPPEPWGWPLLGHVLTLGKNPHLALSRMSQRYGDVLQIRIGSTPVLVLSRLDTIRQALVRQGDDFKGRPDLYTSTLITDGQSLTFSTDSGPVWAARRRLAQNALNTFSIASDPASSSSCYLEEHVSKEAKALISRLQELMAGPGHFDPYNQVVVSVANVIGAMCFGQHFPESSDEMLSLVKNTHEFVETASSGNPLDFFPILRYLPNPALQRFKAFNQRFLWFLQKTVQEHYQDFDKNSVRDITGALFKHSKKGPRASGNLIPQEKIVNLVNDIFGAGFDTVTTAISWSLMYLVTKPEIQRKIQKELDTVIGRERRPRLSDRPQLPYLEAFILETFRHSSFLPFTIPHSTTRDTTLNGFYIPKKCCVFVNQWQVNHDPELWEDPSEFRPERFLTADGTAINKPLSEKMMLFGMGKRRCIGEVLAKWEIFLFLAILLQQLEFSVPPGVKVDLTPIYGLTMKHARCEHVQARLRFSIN

Test [6] concerns the target T3, Zinc finger protein mex-5 (Caenorhabditis elegans, UniProt Q9XUB2).
T3 sequence (Q9XUB2 whole entry): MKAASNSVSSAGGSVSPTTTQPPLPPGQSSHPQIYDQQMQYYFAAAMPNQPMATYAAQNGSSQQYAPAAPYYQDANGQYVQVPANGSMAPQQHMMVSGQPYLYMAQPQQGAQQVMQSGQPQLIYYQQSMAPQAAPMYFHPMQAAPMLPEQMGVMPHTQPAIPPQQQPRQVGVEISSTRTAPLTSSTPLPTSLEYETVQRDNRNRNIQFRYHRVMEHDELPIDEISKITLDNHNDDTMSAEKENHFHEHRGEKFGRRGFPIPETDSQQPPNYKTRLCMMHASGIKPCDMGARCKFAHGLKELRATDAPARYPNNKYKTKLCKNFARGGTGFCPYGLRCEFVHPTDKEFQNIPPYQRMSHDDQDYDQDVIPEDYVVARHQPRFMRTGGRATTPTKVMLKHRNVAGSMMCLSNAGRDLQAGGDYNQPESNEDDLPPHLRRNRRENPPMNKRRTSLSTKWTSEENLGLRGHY
Kind of test: MEX-5/TCR-2 RNA interaction inhibitors, dose response, biochemical, C. elegans, fluorescence polarization (AID 1960). In general terms: In fluorescence polarisation assays a small probe gives low polarisation when free and higher when bound to something large.

Test [7] has as its target Cytochrome P450 2C19 (Homo sapiens, UniProt P33261). Description: Cytochrome panel assay with activity outcomes. Panel member name: p450-cyp2c19 Compounds with AC50 equal or less than 10 uM are considered active. To be noted: read-out: AC50. Format: functional.
Test [8] relates to H4. Kind of test: Luminescence Cell-Based Dose Response HTS to Identify Activators of 5'UTR Stem-Loop Driven Prion Protein mRNA Translation in H4 Neuroglioblastoma Cells. [Related pubchem assays: 1829 (Project Summary), 1814 (Primary HTS)]. Format: functional. Particulars: Homo sapiens.
The nature of test [9]: Luminescence Cell-Based Dose Response HTS to Identify Activators of Luciferase Translation or Activity in H4 […] Cells. [Related pubchem assays: 1829 (Project Summary), 1814 (Primary HTS)]. Format: functional.
For test [10], the system named is INS1. Description: beta cell apoptosis inhibitors, cytokine rescue, dose response, luminescence, retest (AID 449756).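 Also: cell death triggered by IL-1 beta plus TNF-alpha plus IFN-gamma mixture; protective hits raise ATP signal compared with cytokine alone wells.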 The class given is functional, cell-based. Particulars: Rattus norvegicus.
Test [11] in a line: control 3'UTR Renilla luciferase suppression, dose response, counter-screen for Shn3 inhibitor project, cell-based, Clone20-Shn3RL, cherry-picked (AID 624133). Format: functional. On the technique in general: A counterscreen serves to expose hits that act by an unwanted route or on another target.
Test [12] in a line: Shn3 3'UTR reporter inhibitors, dose response, cell-based, Clone20 osteoblasts, firefly luciferase, cherry-picked (AID 624132).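 Also: firefly luciferase luminescence from reporter carrying the Shn3 3'UTR in osteoblasts.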 Format: functional.
The nature of test [13]: HEp-2 cell cytotoxicity, dose response, cytotoxicity control for RSV inhibitor project, HTS (AID 2410). Format: functional. To be noted: human respiratory syncytial virus.
For test [14], the target named is T4, Protein skinhead-1 (Caenorhabditis elegans, UniProt P34707).
T4 sequence (P34707 whole entry): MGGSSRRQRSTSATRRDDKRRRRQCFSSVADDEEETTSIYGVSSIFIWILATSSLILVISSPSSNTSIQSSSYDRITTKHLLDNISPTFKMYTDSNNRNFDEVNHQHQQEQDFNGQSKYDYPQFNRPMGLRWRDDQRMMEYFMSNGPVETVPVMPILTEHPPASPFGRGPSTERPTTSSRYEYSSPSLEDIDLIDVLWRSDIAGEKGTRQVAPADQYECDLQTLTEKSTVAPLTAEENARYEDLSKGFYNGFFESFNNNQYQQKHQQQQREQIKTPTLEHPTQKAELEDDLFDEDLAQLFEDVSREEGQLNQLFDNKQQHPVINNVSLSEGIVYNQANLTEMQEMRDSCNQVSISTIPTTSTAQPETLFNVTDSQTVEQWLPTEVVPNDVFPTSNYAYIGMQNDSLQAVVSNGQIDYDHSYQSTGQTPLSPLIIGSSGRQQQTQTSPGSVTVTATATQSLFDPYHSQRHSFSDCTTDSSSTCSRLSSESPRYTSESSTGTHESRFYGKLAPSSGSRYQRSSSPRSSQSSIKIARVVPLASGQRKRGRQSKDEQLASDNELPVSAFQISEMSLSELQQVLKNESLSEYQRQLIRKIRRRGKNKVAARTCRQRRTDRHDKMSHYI
Format: functional.

The target of test [15] is Cytochrome P450 2D6 (Homo sapiens, UniProt P10635).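 Also: CYP2D6 member of a cytochrome P450 panel assay.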
Chain of Cytochrome P450 2D6 (P10635 whole entry): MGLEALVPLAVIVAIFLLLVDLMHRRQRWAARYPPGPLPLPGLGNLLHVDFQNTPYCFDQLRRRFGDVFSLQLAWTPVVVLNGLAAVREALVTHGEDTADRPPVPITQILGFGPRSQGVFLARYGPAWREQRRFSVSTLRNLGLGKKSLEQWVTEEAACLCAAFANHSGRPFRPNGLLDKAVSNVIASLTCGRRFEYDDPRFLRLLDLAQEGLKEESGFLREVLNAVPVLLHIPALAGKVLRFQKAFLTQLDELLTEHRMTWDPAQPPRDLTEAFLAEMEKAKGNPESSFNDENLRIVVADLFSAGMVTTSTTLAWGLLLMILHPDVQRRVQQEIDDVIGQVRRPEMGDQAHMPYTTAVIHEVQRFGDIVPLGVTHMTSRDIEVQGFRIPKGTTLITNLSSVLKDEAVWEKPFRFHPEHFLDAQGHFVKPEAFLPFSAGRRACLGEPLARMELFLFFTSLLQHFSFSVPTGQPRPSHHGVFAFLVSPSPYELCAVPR

Chain of Cytochrome P450 2C19 (P33261 whole entry): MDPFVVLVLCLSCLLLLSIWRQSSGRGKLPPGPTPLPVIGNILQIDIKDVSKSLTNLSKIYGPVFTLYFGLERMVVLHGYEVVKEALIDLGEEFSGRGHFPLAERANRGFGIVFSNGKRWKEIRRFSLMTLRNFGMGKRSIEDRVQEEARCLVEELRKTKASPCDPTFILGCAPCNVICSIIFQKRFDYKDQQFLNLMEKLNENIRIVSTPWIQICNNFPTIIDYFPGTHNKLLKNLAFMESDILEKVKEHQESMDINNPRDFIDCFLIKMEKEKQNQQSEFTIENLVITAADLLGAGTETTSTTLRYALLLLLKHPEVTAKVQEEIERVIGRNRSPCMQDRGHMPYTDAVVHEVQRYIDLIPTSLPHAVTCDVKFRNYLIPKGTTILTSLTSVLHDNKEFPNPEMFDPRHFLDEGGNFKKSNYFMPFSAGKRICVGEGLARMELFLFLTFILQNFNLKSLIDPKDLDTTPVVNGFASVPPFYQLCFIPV
Chain of Luciferin 4-monooxygenase (P08659 whole entry): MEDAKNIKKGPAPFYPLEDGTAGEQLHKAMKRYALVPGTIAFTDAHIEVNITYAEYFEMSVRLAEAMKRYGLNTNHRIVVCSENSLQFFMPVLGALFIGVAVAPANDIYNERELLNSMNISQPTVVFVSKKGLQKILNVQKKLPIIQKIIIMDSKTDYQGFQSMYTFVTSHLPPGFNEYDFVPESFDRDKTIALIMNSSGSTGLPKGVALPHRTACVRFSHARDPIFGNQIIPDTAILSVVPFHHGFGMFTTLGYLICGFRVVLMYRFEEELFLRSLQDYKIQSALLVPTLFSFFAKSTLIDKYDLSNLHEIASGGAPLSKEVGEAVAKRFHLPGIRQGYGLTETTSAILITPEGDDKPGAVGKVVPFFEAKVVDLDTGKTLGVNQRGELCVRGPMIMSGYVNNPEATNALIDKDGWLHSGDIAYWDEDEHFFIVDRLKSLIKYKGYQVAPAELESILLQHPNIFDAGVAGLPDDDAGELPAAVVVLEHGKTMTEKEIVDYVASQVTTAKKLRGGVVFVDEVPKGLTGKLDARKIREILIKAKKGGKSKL
Chain of Cytochrome P450 2C9 (P11712 whole entry): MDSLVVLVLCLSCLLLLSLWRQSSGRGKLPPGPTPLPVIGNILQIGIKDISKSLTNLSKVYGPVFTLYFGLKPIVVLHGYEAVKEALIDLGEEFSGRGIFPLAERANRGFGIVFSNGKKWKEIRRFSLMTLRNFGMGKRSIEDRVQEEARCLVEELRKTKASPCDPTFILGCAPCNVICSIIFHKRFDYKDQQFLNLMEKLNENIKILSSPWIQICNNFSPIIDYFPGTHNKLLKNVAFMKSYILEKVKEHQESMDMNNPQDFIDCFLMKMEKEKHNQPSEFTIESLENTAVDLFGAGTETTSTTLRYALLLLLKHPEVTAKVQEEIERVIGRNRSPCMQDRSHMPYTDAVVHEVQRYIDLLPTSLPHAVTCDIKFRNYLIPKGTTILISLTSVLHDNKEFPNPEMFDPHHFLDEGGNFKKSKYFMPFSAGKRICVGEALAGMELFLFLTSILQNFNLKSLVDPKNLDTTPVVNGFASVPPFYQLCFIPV

As for `O=C(CN1C(=O)c2cccc3cccc1c23)N1CCN(c2ccc(F)cc2)CC1`, the EC50 in test [1] and in [2] was > 112 µM (not active) each time.

As for `CC(Sc1nnc(C(C)N(C)C)n1-c1ccc(Cl)cc1)C(=O)Nc1ccc2c(c1)OCO2` (stereo not given), in [3], the AC50 was 15.8 µM (inconclusive).

`Cc1cc(/C=C2\C(=O)NC(=O)N(c3ccc(Cl)cc3)C2=O)c(C)n1C`: the EC50 in [4] is 63.5 µM (active).

With `Cc1cc(C)n(C(=O)CCCCCCCCC(=O)n2nc(C)cc2C)n1`, the results for the AC50 in [3] and in test [5] were 0.251 µM (inconclusive) and 15.8 µM (inconclusive), respectively.

Take `Cc1ccc(C(=O)C2=C(O)C(=O)N(Cc3ccco3)C2c2ccc(N(C)C)cc2)o1` (stereo not given): the EC50 in test [4] and in test [6] was > 300 µM (not active) in each case.

For the compound `COc1cc(OC)c(C2C(C#N)=C(N)OC3=C2C(=O)CC(C)(C)C3)cc1OC` (stereo not given), the EC50 in test [4] and in test [6] was > 300 µM (not active) in each case.

In the case of `COC(=O)C1CSc2[nH]c(=O)sc2C1c1ccccc1` (stereo not given), the half-maximal effective concentration (EC50) in test [4] is 7.13 µM (active); in [6] it was 7.46 µM (active).

With `O=c1c(CCc2ccccc2)nc2cnc(Nc3ccccc3)nc2n1C[C@H]1CCCO1`, the AC50 in [3] was 20 µM (inconclusive).

As for `CCn1c(=O)c([N+](=O)[O-])c(NCCc2ccc(OC)c(OC)c2)c2ccccc21`, the EC50 in [1] and in test [2] was > 112 µM (not active) in each case.

With `COc1cccc(C(=O)Nc2ccc(-c3nnc(-c4ccco4)o3)cc2)c1`, the AC50 in test [3] was 1.41 µM (inconclusive); in test [7], 2.82 µM (inconclusive).

As to `Cn1cc(/C=N\NC(=O)c2cccs2)c2ccccc21`, the values for the EC50 in test [8] and in test [9] were 37.7 µM (active) and 50.3 µM (active), respectively.

Regarding `COc1cccc(-c2cncnc2NCCc2c[nH]c3ccc(OC)cc23)c1`, the AC50 in [3] was 0.1 µM (inconclusive).

Turning to `COc1cccc(-c2nc(C[S+]([O-])CC(=O)NCCc3ccc(C)cc3)c(C)o2)c1` (stereo not given), the EC50 in [1] and in test [2] was > 112 µM (not active) throughout.

As for `N#Cc1ccc(C(=O)Nc2nc(-c3cccs3)c(C(=O)C(F)(F)F)s2)cc1`, the AC50 in test [10] was 4.75 µM (active).

For `CC1CN(c2nc3ccccc3nc2C(C#N)C(=O)NC2CCCCC2)CC(C)O1` (stereo not given), the EC50 is > 300 µM (not active) in test [4] and > 300 µM (inconclusive) in test [6].

For the compound `COc1ccc(NC(=O)c2sc3nc(-c4cccnc4)ccc3c2N)cc1`, the EC50 in test [4] was 40.6 µM (inconclusive); in [6], 4.79 µM (active).

For the compound `CN(C)CCCN/C=C1\C(=O)NC(=O)N(CCc2ccc(F)cc2)C1=O`, the EC50 in test [4] and in test [6] was > 300 µM (not active) each time.

Regarding `c1ccc(C(c2ccccc2)N2CC[C@@]3(CCCNC3)C2)cc1`, the AC50 in test [3] is 31.6 µM (inconclusive).

As to `Cc1c(C(=O)N2CCCCC2)c(S(=O)(=O)N(C)Cc2ccccc2)c(C)n1C`, the EC50 in test [1] and in test [2] was > 112 µM (not active) throughout.

Regarding `O=c1oc(Nc2ccc(F)cc2)nc2ccccc12`, the results for the EC50 in test [1] and in test [2] were 8.06 µM (active) and 4.03 µM (active), respectively.

For the compound `CCOC(=O)C1CCN(C(=O)c2sc3nc(C)nc(N4CCC(C)CC4)c3c2C)CC1`, the AC50 in test [11] is 9.01 µM (active); in test [12], 5.26 µM (active).

With `Cc1c(NC(=O)/C(C#N)=C/c2ccc(-c3ccc(Cl)c(Cl)c3)o2)c(=O)n(-c2ccccc2)n1C`, the CC50 in test [13] was 13.3 µM (active). Moreover, the IC50 in [14] was > 100 µM (inactive).

As for `O=c1sc(/C=N/Nc2ccccc2)c(Cl)n1Cc1ccccc1`, the EC50 in test [8] was 21.4 µM (active); in test [9], > 120 µM (not active).

Turning to `O=c1cnc2cncnc2n1Cc1ccccc1Cl`, the results for the AC50 in [3], in test [5] and in [15] were 20 µM (inconclusive), 15.8 µM (inconclusive) and 20 µM (inconclusive), respectively.

`COc1cccc(C(=O)NCC2CCN(c3ccc(S(=O)(=O)N4CCOCC4)cc3)CC2)c1`: the EC50 in test [4] and in test [6] was > 300 µM (not active) in each case.

As to `Cc1ccccc1Oc1cc(NC(=O)CCCn2nc(C)c([N+](=O)[O-])c2C)cc([N+](=O)[O-])c1`, in [10], the AC50 was 6.96 µM (active).

Regarding `N#Cc1c(Nc2ccccc2)sc(C(=O)c2ccc(F)cc2)c1N`, the half-maximal activity concentration (AC50) in test [10] was 20.9 µM (active).

Take `Cc1n[nH]c(NNC(=O)c2ccccc2)c1[N+](=O)[O-]`: the values for the EC50 in [4] and in test [6] were 15.2 µM (active) and 4.96 µM (active), respectively.

Take `O=C1CC(=O)C(n2cncn2)C(c2cccc(Cl)c2)C1` (stereo not given): the AC50 in test [3] is 25.1 µM (inconclusive); in [7], 3.98 µM (inconclusive).

With `COc1cc(CNCc2cccs2)cc(Br)c1OC`, the AC50 in [3] was 1.41 µM (inconclusive).

On to `CCCCCN1C=CC=C/C1=C\C=C(C#N)C#N`, for which the values for the EC50 in [4] and in test [6] were 30.3 µM (inconclusive) and > 300 µM (not active), respectively.

For `O=C1/C(=C/c2cccs2)CCc2ccccc21`, the IC50 in test [14] was 18.6 µM (active).

With `N#Cc1cc2c(nc1SCC(=O)Nc1sc3c(c1C#N)CCC3)CCCC2`, the EC50 is 16 µM (active) in test [8] and > 120 µM (not active) in test [9].

In the case of `Cc1cccc(C(C)(C)C)c1OCCN1CCCC1`, the AC50 in test [11] was 9.87 µM (active); in test [12], 34.2 µM (active).

Consider `COc1cccc(/C=N/NC(=O)c2cc(-c3ccccn3)nc3ccccc23)c1O`, for which the AC50 in test [10] was 1.8 µM (active).

Regarding `COc1ccc2[nH]cc(CCNc3nc(-c4ccc(C(=O)N(C)C)cc4)nc4ccccc34)c2c1`, the half-maximal activity concentration (AC50) in test [3] was 1 µM (inconclusive); in [15], 20 µM (inconclusive).

With `COCCNC(=O)CSc1ncnc2sccc12`, the AC50 in test [3] was 28.2 µM (inconclusive).

Take `O=c1cnc2cnc(Oc3cccc(Cl)c3)nc2n1C[C@H]1CCCO1`: the AC50 in [3] is 15.8 µM (inconclusive); in test [7], 39.8 µM (inconclusive).
